What was measured:
maize = assay: Profiling test, herbicidal pre-emergence action with safener: container trials with maize in the greenhouse, Ex. II-e-5 1 day prior to herbicide application; assay type: in vivo; details: 28 days after application, without safener
Description: Seeds of monocotyledonous and dicotyledonous weed and crop plants are placed in sandy loam soil in wood fibre pots or in plastic pots and covered with soil. The pots are watered slightly, and the soil surface is then treated with various dosages of the test compounds, formulated as wettable powders (WP) or liquid (EC), at a water application rate of 300 l/ha (converted). The pots with the plants are cultivated in a greenhouse, during the vegetation period also outdoors outside of the greenhouse, under good growth conditions. 3-4 weeks after sowing and the treatment of the pots, the activity of the preparations is rated visually in comparison to untreated controls (herbicidal activity in percent (%): 100% activity=the plants have died, 0% activity=like control plants).
(§1) If it is additionally to be tested as to whether safeners can improve the plant compatibility of test substances in the case of crop plants, the following options are used for applying the safener: • seeds of the crop plants are, before sowing, dressed with the safener substance (the amount of safener stated in percent, based on the weight of the seed) • before the application of the test substances, the pots of crop plants are sprayed with the safener at a certain application rate per hectare (usually 1 day before the application of the test substances) • the safener is applied together with the test substance as a tank mix (the amount of safener stated in g/ha or as a ratio, based on the herbicide).
(§2) By comparing the effect of the test substances on crop plants without or with safener treatment, it is possible to assess the effect of the safener substance.

cereal = assay: Profiling test, herbicidal post-emergence action with safener: container trials with cereal in a greenhouse, Mefenpyr 1 day prior to herbicide application; assay type: in vivo; details: without safener
Description: Seeds of monocotyledonous and dicotyledonous weed and crop plants are placed in sandy loam soil in wood fibre pots or in plastic pots, covered with soil and cultivated in a greenhouse, during the vegetation period also outdoors outside of the greenhouse, under good growth conditions. 2-3 weeks after sowing, the test plants are treated at the one- to three-leaf stage. The test compounds, formulated as wettable powders (WP) or liquid (EC), are, in various dosages with a water application rate of 300 l/ha (converted), with wetting agent (0.2 to 0.3%) added, sprayed onto the plants and the surface of the soil. […]
as §1, with “proper” for “pots of crop”
as §2

[1] = tested on: caterpillars of the diamondback moth (Plutella xylostella); assay: Plutella test (PLUTMA); assay type: in vivo; details: 100 ppm, cabbage leaves dipped
Description: (§3) Solvent: 7 parts by weight of dimethylformamide
(§4) Emulsifier: 2 parts by weight of alkylaryl polyglycol ether
(§5) To produce a suitable preparation of active compound, 1 part by weight of active compound is mixed with the stated amounts of solvent and emulsifier, and the concentrate is diluted with emulsifier-containing water to the desired concentration.
Cabbage leaves (Brassica oleracea) are treated by being dipped into the active compound preparation of the desired concentration and populated with caterpillars of the diamondback moth (Plutella xylostella) while the leaves are still moist.
(§6) After the desired period of time, the kill in % is determined. 100% means that all caterpillars have been killed; 0% means that none of the caterpillars have been killed.

[2] = tested on: caterpillars of the armyworm (Spodoptera exigua); assay: Spodoptera exigua test (SPODEX); assay type: in vivo; details: 100 ppm, cabbage leaves dipped
Description: as §3, §4
To produce a suitable preparation of active compound, 1 part by weight of active compound is mixed with the stated amounts of solvent and emulsifier, and the concentrate is diluted with water to the desired concentration.
Cabbage leaves (Brassica oleracea) are treated by being dipped into the active compound preparation of the desired concentration and populated with caterpillars of the armyworm (Spodoptera exigua) while the leaves are still moist.
as §6

[3] = tested on: caterpillars of the armyworm (Spodoptera exigua, resistant strain); assay: Spodoptera exigua test; resistant strain (SPODEX R); assay type: in vivo; details: 100 ppm, cabbage leaves dipped
Description: as §3, §4, §5
Cabbage leaves (Brassica oleracea) are treated by being dipped into the active compound preparation of the desired concentration and populated with caterpillars of the armyworm (Spodoptera exigua, resistant strain) while the leaves are still moist.
as §6

[4] = Determination of the log P values by HPLC on a reversed-phase column (C18); assay type: physicochemical; details: for chromatographic logP: reversed-phase HPLC column (C18)
Description: The log P values given in the table were determined in accordance with EEC Directive 79/831 Annex V.A8 by HPLC (High Performance Liquid Chromatography) on a reversed-phase column (C18). Temperature: 43° C.
Mobile phases for the determination in the acidic range (pH 2.3): 0.1% aqueous phosphoric acid, acetonitrile; linear gradient from 10% acetonitrile to 90% acetonitrile
Calibration was carried out using unbranched alkan-2-ones (with 3 to 16 carbon atoms) whose log P values are known (determination of the log P values by the retention times using linear interpolation between two successive alkanones).

[5] = 28 days after application, 12.5 g of a.i./ha
[6] = 28 days after application, 25 g of a.i./ha
[7] = 28 days after application, 11 g of a.i./ha
[8] = 28 days after application, 23 g of a.i./ha
[9] = 28 days after application, 46 g of a.i./ha
[10] = 28 days after application, 91 g of a.i./ha
[11] = compounds of the formula (III), cis/trans isomer mixture, first value of the cell
[12] = compounds of the formula (III), cis/trans isomer mixture, second value of the cell
[13] = compounds of the formula (I-2-a), m.p. ° C./log P

For CCOC(=O)OC1=C(c2c(C)cc(C)cc2C)C(=O)NC12CCCC(COC)C2 (single isomer, unassigned) [Example I-1-c-9], the “Maize - Cecilia observed (%)” value (maize; 100 g of a.i./ha) was 50%.
For CCc1cc(Cl)cc(OC)c1C1=C(OC(=O)COC)C2(CCCC(COC)C2)NC1=O (single isomer, unassigned) [Example I-1-b-6], the “Summer barley observed (%)” value (cereal; [5]) was 70%.
With CCOC(=O)OC1=C(c2c(Br)cc(C)cc2CC)C(=O)NC12CCC(COC)CC2 (single isomer, unassigned) [Example I-1-c-6] the “Maize - Cecilia observed (%)” value (maize; 12.5 g of a.i./ha) was 60%.
For CCOC(=O)OC1=C(c2c(CC)cc(Cl)cc2OC)C(=O)NC12CCC(COC)CC2 (single isomer, unassigned) [Example I-1-c-7], the “Maize - Arsenal observed (%)” value (maize; 25 g of a.i./ha) was 60%.
With COCC1CCC2(CC1)NC(=O)C(c1cc(-c3ccc(Cl)cc3)ccc1C)=C2O (single isomer, unassigned) [Example I-1-a-5] the “efficacy (kill of caterpillars)” value [1] was no less than 80%, the “efficacy (kill of caterpillars)” value [2] was no less than 80% and the “efficacy (kill of caterpillars)” value [3] was no less than 80%.
For CCc1cc(Cl)cc(OC)c1C1=C(O)C2(CCC(COC)CC2)NC1=O (single isomer, unassigned) [Example I-1-a-4], the “Summer barley observed (%)” value (cereal; [6]) was 50%, the “Maize - Arsenal observed (%)” value (maize; 12.5 g of a.i./ha) was 40% and the “Maize - Arsenal observed (%)” value (maize; 25 g of a.i./ha) was 65%.
In the case of CCCOCC1CCCC2(C1)NC(=O)C(c1c(Br)cc(C)cc1CC)=C2O (single isomer, unassigned) [Example I-1-a-12], the “Summer barley observed (%)” value (cereal; [7]) was 10%, the “Summer barley observed (%)” value (cereal; [8]) was 20% and the “Summer barley observed (%)” value (cereal; [9]) was 30%. For the same compound, the “Summer barley observed (%)” value (cereal; [10]) was 60%, the “Summer wheat observed (%)” value (cereal; [7]) was 10% and the “Summer wheat observed (%)” value (cereal; [8]) was 15%. The “Summer wheat observed (%)” value (cereal; [9]) was 20% and the “Summer wheat observed (%)” value (cereal; [10]) was 30%.
In the case of CCc1cc(C)cc(Br)c1C1=C(O)C2(CCC(COC)CC2)NC1=O (single isomer, unassigned) [Example I-1-a-3], the “Summer barley observed (%)” value (cereal; [5]) was 20%, the “Summer barley observed (%)” value (cereal; [6]) was 60% and the “Summer wheat observed (%)” value (cereal; 10 days after application, 12.5 g of a.i./ha) was 20%. The “Summer wheat observed (%)” value (cereal; 10 days after application, 25 g of a.i./ha) was 40%.
In the case of CCOC(=O)C1(OC(=O)Cc2c(C)ccc(-c3ccc(Cl)cc3)c2C)CCC(COC)CC1 (mixture of isomers) [III-17], the “log P” value [4, 11] was 5.86 and the “log P” value [4, 12] was 5.96.
For CCOC(=O)C1(OC(=O)Cc2cc(-c3ccc(Cl)cc3)ccc2C)CCCC(COC)C1 (mixture of isomers) [III-2], the “log P” value [4, 11] was 5.50 and the “log P” value [4, 12] was 5.58.
For CCc1cc(Br)cc(CC)c1C1=C(O)C2(CCCC(COC)C2)OC1=O (stereo not shown) [Example I-2-a-7], the “log P” value [4, 13] was “oil/3.44”.
In the case of CCOC(=O)C1(OC(=O)Cc2cc(C)c(-c3ccc(Cl)cc3)cc2C)CCCC(CCOC)C1 (mixture of isomers) [III-25], the “log P” value [4, 11] was 6.03 and the “log P” value [4, 12] was 6.12.
In the case of CCOC(=O)C1(OC(=O)Cc2cc(-c3ccc(Cl)cc3)ccc2C)CCC(CCOC)CC1 (mixture of isomers) [III-28], the “log P” value [4, 11] was 5.69 and the “log P” value [4, 12] was 5.81.
In the case of CCOC(=O)C1(OC(=O)Cc2c(C)cc(Br)cc2C)CCC(COC)CC1 (mixture of isomers) [III-9], the “log P” value [4, 11] was 4.88 and the “log P” value [4, 12] was 5.01.
With CCc1cc(C)cc(CC)c1C1=C(OC(=O)C(C)C)C2(CCC(CCOC)CC2)OC1=O (stereo not shown) [Example I-2-b-2] the chromatographic logP ([4]; pH 2.3, HPLC reversed-phase column (C18), acidic range (pH 2.3), 43° C.) was 5.43.
With CCOC(=O)C1(OC(=O)Cc2c(C)cc(C)cc2C)CCC(CCOC)CC1 (stereo not shown) [III-1] the “log P” value ([4]; cis/trans isomer mixture, HPLC reversed-phase column (C18), acidic range (pH 2.3), 43° C.) was 5.13 and the chromatographic logP ([4]; pH 2.3, cis/trans isomer mixture, HPLC reversed-phase column (C18), acidic range (pH 2.3), 43° C.) was 5.01.
With CCc1cc(C)cc(CC)c1C1=C(O)C2(CCCC(CCOC)C2)OC1=O (stereo not shown) [Example I-2-a-24] the “log P” value [4, 13] was “oil/3.44”.
In the case of CCc1cc(C)cc(Br)c1C1=C(O)C2(CCCC(COC)C2)NC1=O (single isomer, unassigned) [Example I-1-a-8], the “Summer wheat observed (%)” value (cereal; [5]) was 90% and the “Summer wheat observed (%)” value (cereal; [6]) was 95%.
With CCOC(=O)C1(OC(=O)Cc2c(C)cc(C)cc2C)CCC(COC)CC1 (mixture of isomers) [III-12] the “log P” value [4, 11] was 4.76 and the “log P” value [4, 12] was 4.88.
For CCOC(=O)C1(OC(=O)Cc2c(CC)cc(C)cc2CC)CCC(CCOC)CC1 (mixture of isomers) [III-33], the “log P” value [4, 11] was 5.64 and the “log P” value [4, 12] was 5.75.
In the case of CCOC(=O)C1(OC(=O)Cc2cc(-c3ccc(Cl)cc3)ccc2Cl)CCC(COC)CC1 (mixture of isomers) [III-16], the “log P” value [4, 11] was 5.52 and the “log P” value [4, 12] was 5.67.
For COCC1CCC2(CC1)OC(=O)C(c1c(C)cc(C)cc1C)=C2O (stereo not shown) [Example I-2-a-12], the “log P” value [4, 13] was “oil/2.69”.
For CCOC(=O)C1(OC(=O)Cc2cc(C)c(C)cc2C)CCC(COC)CC1 (mixture of isomers) [III-11], the “log P” value [4, 11] was 4.74 and the “log P” value [4, 12] was 4.85.
In the case of COCCC1CCCC2(C1)OC(=O)C(c1cc(C)c(C)cc1C)=C2O (stereo not shown) [Example I-2-a-21], the “log P” value [4, 13] was “oil/2.96”.
